# Laboratory results published in the supplement of paper PMC5579334.
# ± gives the standard deviation of the averaged measurements.
# How the values were obtained:
# HS-Sch-2 [1] = assay: % inhibition of CellTiter-Glo viability at highest tested concentration (72 h), relative to DMSO and benzethonium chloride controls; higher = more inhibition
# Summary of the method: (§1)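 MPNST cell lines and primary human Schwann cells were seeded at 750–1000 cells per well into 384-well plates preprinted with each compound at five concentrations in 10-fold steps, then incubated 72 h at 37 °C, 5% CO2. CellTiter-Glo ATP luminescence gave viability, scaled between vehicle and positive-control wells, with duplicates averaged where present. Curves were fitted with a four-parameter logistic model. Percent inhibition refers to the top concentration, while drug sensitivity score and relative IC50, censored at the top concentration, come from these fits.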
# S1507-2 [2] = assay: as above
# Summary of the method: as §1
# S462 [3] = assay: as above
# Summary of the method: as §1
# [4] = test system: HSC1 (primary human Schwann cells); assay: as above
# Summary of the method: as §1
# ST8814 [5] = assay: as above
# Summary of the method: as §1
# [6] = test system: HSC2 (primary human Schwann cells); assay: as above
# Summary of the method: as §1
# STS26T [7] = assay: as above
# Summary of the method: as §1
# HS-PSS [8] = assay: as above
# Summary of the method: as §1
# YST-1 [9] = assay: as above
# Summary of the method: as §1
# S1507-2 [10] = assay: drug sensitivity score (DSS, CellTox-Green cytotoxicity, 72 h) (DSS (dimensionless)); higher = more cytotoxic; extreme values may be limits of the assay
# Summary of the method: (§2)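 For 72 h at 37 °C, MPNST cell lines and primary human Schwann cells were exposed in 384-well plates to five 10-fold compound dilutions. CellTox-Green, added before seeding at a final 1:1000 dilution, gave fluorescence from DNA released by disrupted cells. Signals were scaled to vehicle and positive-control wells, cultures failing plate quality control were left out, and four-parameter logistic fits were applied. Relative IC50 and drug sensitivity score were derived from the fits, with IC50 censored at the top concentration.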
# [11] = test system: HSC1 (primary human Schwann cells); assay: as above
# Summary of the method: as §2
# ST8814 [12] = assay: as above
# Summary of the method: as §2
# [13] = test system: HSC2 (primary human Schwann cells); assay: as above
# Summary of the method: as §2
# STS26T [14] = assay: as above
# Summary of the method: as §2
# HS-PSS [15] = assay: as above
# Summary of the method: as §2
# HS-Sch-2 [16] = assay: drug sensitivity score (DSS, CellTiter-Glo viability, 72 h) (DSS (dimensionless)); higher = more sensitive; extreme values may be limits of the assay
# Summary of the method: as §1
# S1507-2 [17] = assay: as above
# Summary of the method: as §1
# S462 [18] = assay: as above
# Summary of the method: as §1
# [19] = test system: HSC1 (primary human Schwann cells); assay: as above
# Summary of the method: as §1
# ST8814 [20] = assay: as above
# Summary of the method: as §1
# [21] = test system: HSC2 (primary human Schwann cells); assay: as above
# Summary of the method: as §1
# STS26T [22] = assay: as above
# Summary of the method: as §1
# HS-PSS [23] = assay: as above
# Summary of the method: as §1
# YST-1 [24] = assay: as above
# Summary of the method: as §1
Compound,% inhibition (HS-Sch-2 [1]),% inhibition (S1507-2 [2]),% inhibition (S462 [3]),% inhibition [4],% inhibition (ST8814 [5]),% inhibition [6],% inhibition (STS26T [7]),% inhibition (HS-PSS [8]),% inhibition (YST-1 [9]),drug sensitivity score (S1507-2 [10]),drug sensitivity score [11],drug sensitivity score (ST8814 [12]),drug sensitivity score [13],drug sensitivity score (STS26T [14]),drug sensitivity score (HS-PSS [15]),drug sensitivity score (HS-Sch-2 [16]),drug sensitivity score (S1507-2 [17]),drug sensitivity score (S462 [18]),drug sensitivity score [19],drug sensitivity score (ST8814 [20]),drug sensitivity score [21],drug sensitivity score (STS26T [22]),drug sensitivity score (HS-PSS [23]),drug sensitivity score (YST-1 [24])
C=CC(=O)Nc1cc2c(Nc3ccc(F)c(Cl)c3)ncnc2cc1OCCCN1CCOCC1 [Canertinib] (max concentration tested 10000 nM),94.2%,87.9 ± 0.97%,96.1 ± 0.97%,96.6%,96.3%,96.2%,96.5%,88.7%,96.3%,5.1 ± 0.58,7.58,4.72,8,4.76,3.38,6.37,7.98 ± 0.98,6.03 ± 1,8.87,8.06,7.63,7.19,6.16,5.36
Nc1ccccc1NC(=O)c1ccc(CNC(=O)OCc2cccnc2)cc1 [Entinostat] (max concentration tested 10000 nM),79.7%,74.9 ± 7.7%,105.3 ± 0.38%,71.2%,87.7%,73%,69.3%,52%,97.7%,2.98 ± 1.3,0,2.69,0,0.625,0.63,4.13,4.79 ± 0.3,9.84 ± 0.75,5.09,4.2,4.87,4.35,2.31,10.3
COc1cc(CCc2cc(NC(=O)c3ccc(N4CC(C)NC(C)C4)cc3)n[nH]2)cc(OC)c1 (configuration not stated) [AZD4547] (max concentration tested 1000 nM),33.5%,22.2 ± 3.5%,24.6 ± 2.2%,22.4%,9.11%,4.39%,-2.98%,4.91%,3.65%,0.158 ± 0.22,0,0,0,0,0,1.94,1.28 ± 0.63,2.85 ± 0.75,3.09,0,0,0,0,0
CCN(CC)CCNC(=O)c1c(C)[nH]c(/C=C2\C(=O)Nc3ccc(F)cc32)c1C [Sunitinib] (max concentration tested 1000 nM),6.65%,17.7 ± 11%,16.1 ± 0.67%,-2.06%,14.7%,-10.9%,8.24%,11.8%,-7.4%,17.2 ± 24,0,0,0,0,0,0,0.923 ± 1.3,0.473 ± 0.41,0,0.732,0,0,0,0
O=c1[nH]c(=O)n([C@H]2C[C@H](O)[C@@H](CO)O2)cc1F [Floxuridine] (max concentration tested 10000 nM),84.7%,31.3 ± 10%,84.1 ± 3.6%,53.1%,57.8%,53.8%,77.3%,30.7%,68.3%,0,1.27,2.95,0.287,7.21,0,17.9,5.09 ± 3.2,22.4 ± 2.9,6.07,12.5,10.6,21.5,2.58,14.7
CN(C)C/C=C/C(=O)Nc1cc2c(Nc3ccc(F)c(Cl)c3)ncnc2cc1O[C@H]1CCOC1 [Afatinib] (max concentration tested 1000 nM),21.2%,11.6 ± 4.3%,2.97 ± 6.7%,8.81%,3.12%,3.38%,12.7%,29.9%,3.62%,0,0,0,0,0,0,1.58,1.88 ± 2.7,0,0,0,0,0,2.49,0
CC(=O)O[C@H]1C(=O)[C@@]2(C)[C@H]([C@H](OC(=O)c3ccccc3)[C@]3(O)C[C@H](OC(=O)[C@H](O)[C@@H](NC(=O)c4ccccc4)c4ccccc4)C(C)=C1C3(C)C)[C@]1(OC(C)=O)CO[C@@H]1C[C@@H]2O [Paclitaxel] (max concentration tested 1000 nM),93%,84.6 ± 1%,99.3 ± 1.5%,70.6%,94.5%,73.9%,99.6%,45.7%,81.6%,15.9 ± 1.1,17.8,18.6,20.3,33.8,0,23.3,17.3 ± 0.6,28.8 ± 1.5,18,18.3,19.1,28.1,12.2,23.7
CNC(=O)c1cc(Oc2ccc(NC(=O)Nc3ccc(Cl)c(C(F)(F)F)c3)c(F)c2)ccn1 [Regorafenib] (max concentration tested 10000 nM),84.1%,33.7 ± 17%,80.9 ± 5.1%,73.8%,74.2%,78.6%,49.9%,43%,73%,0,0,1.04,0,0.529,0,4.17,2.21 ± 1.2,7.19 ± 0.46,4.61,7.57,6.19,4.35,1.9,6.49
CNNCc1ccc(C(=O)NC(C)C)cc1 [Procarbazine] (max concentration tested 10000 nM),-5.24%,-0.333 ± 1.2%,-14.6 ± 3.4%,4.32%,1.52%,3.15%,4.63%,4.68%,3.64%,0.135 ± 0.19,0,0,0,0,0,0,0,0,0,0,0,0,0,0
Cc1cnc(NC(=O)Nc2cc(Br)c(C)cc2OC[C@@H]2CNCCO2)cn1 [Rabusertib] (max concentration tested 1000 nM),84.7%,51.1 ± 10%,91.37 ± 0.63%,11.3%,2.25%,22.3%,36.4%,17.4%,32.8%,1.21 ± 1.4,0.0001,0,0,1.88,0,4.93,3.39 ± 0.54,5.07 ± 0.2,0.0015,0,1.36,2.75,0.93,1.96
O=NN(CCCl)C(=O)NC1CCCCC1 [Lomustine] (max concentration tested 10000 nM),-15%,-7.84 ± 0.87%,-9.57 ± 4%,-0.952%,-8.13%,-3.35%,0.864%,-0.39%,0.78%,0,0,0,0,0,0,0,0,0,0,0,0,0,0,0
O=NN(CCCl)C(=O)NCCCl [Carmustine] (max concentration tested 10000 nM),2.86%,-5.49 ± 3.8%,-7.97 ± 1.3%,0.41%,-3.77%,-7.14%,-1.28%,10.6%,1.73%,0.439 ± 0.62,0,0,0,0,0,0,0,0,0,0,0,0,0.02,0
CC1=C(/C=C/C(C)=C/C=C/C(C)=C/C(=O)O)C(C)(C)CCC1 [Tretinoin] (max concentration tested 10000 nM),-3.32%,22.8 ± 16%,4.5 ± 5.9%,32.9%,19.1%,20.1%,12.3%,-12.1%,-8.64%,0.483 ± 0.68,0,0,0,0,0,0,2.06 ± 2.6,0,3.65,1.48,1.99,0.0098,0,0
